Test results published in PMC11876601 (Molecular Systems Biology, 2025).
Values joined by “and” are separate entries in the source; they are usually repeats but may differ in a detail not shown here. Equal values may be shown once. Blank lines part the entries; values can stand above or below the compound they belong to.

Tests used:
Capan-1 = experiment: cells; parameters: Viability of PDAC cell lines, ATPlite luminescence, 11-dose single-agent curve fit; conditions: Homo sapiens, CAPAN-1, 72 h, read-out: EC50 [nM]
How it was run: (§1)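 screening used cells plated at 1000 to 5000 per well one day before treatment. Final DMSO was 0.2%. Each plate held untreated negative-control wells and 5 µM staurosporine positive-control wells.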

Colo-357 = experiment: cells; parameters: Viability of PDAC cell lines, ATPlite luminescence, 11-dose single-agent curve fit; conditions: Homo sapiens, COLO357, 72 h, read-out: EC50 [nM]
How it was run: as §1

HPDE = experiment: cells; parameters: Viability of PDAC cell lines, ATPlite luminescence, 11-dose single-agent curve fit; conditions: HPDE, 72 h, read-out: EC50 [nM]
How it was run: as §1

HuP-T4 = experiment: cells; parameters: Viability of PDAC cell lines, ATPlite luminescence, 11-dose single-agent curve fit; conditions: Homo sapiens, HuP-T4, 72 h, read-out: EC50 [nM]
How it was run: as §1

PANC-1 = experiment: cells; parameters: Viability of PDAC cell lines, ATPlite luminescence, 11-dose single-agent curve fit; conditions: Homo sapiens, PANC-1, 72 h, read-out: EC50 [nM]
How it was run: as §1

PSN-1 = experiment: cells; parameters: Viability of PDAC cell lines, ATPlite luminescence, 11-dose single-agent curve fit; conditions: Homo sapiens, PSN1, 72 h, read-out: EC50 [nM]
How it was run: as §1

PRKAG2 = system: PRKAG2; parameters: method as in Reinecke et al. (2023); conditions: PRKAG2, 5 cell line mix lysate, Kinobeads ε, ref Reinecke et al. (2023), cited from earlier work
p-sites in AsPC-1 cells = experiment: Phosphoproteomics 1 µM GEM vs. vehicle (4 h); assay type: cell-based, human
Protocol: Cell culture medium was replaced 24 h after seeding. […] For time point 0, AsPC-1 cells were treated with a vehicle and lysed immediately. The final DMSO concentration in all experiments was 0.2%.
Briefly, cells were washed twice with PBS and lysed in SDS lysis buffer (2% SDS in 40 mM Tris-HCl, pH 7.6), followed by sonication for 10 min (30 s on/30 s off) using a Bioruptor (Diagenode). For DNA hydrolysis, samples were boiled at 95 °C for 10 min and incubated with 2% trifluoroacetic acid (TFA) for 1 min, before the reaction was quenched using 4% N-methylmorpholine. Lysate was cleared by centrifugation at 11,000 × g for 5 min and protein concentration was determined using the Pierce BCA Protein Assay Kit (Thermo Scientific).
Using 70% ethanol, samples were then precipitated on beads, followed by washing thrice with 80% ethanol and once with 100% acetonitrile. Subsequently, proteins were reduced and alkylated using 10 mM TCEP, 50 mM chloroacetamide, and 2 mM CaCl2 in 100 mM EPPS/NaOH, pH 8.5 for 1 h at 37 °C, followed by tryptic digestion at 37 °C for 16 h. Peptides were acidified with 1% TFA and desalted on Chromabond HLB plates (30 µm particle size, 10 mg capacity, Machery-Nagel), using 0.1% TFA for equilibration and sample loading, and 0.1% TFA in 70% acetonitrile for peptide elution. Recovered peptides were freeze-dried by vacuum-centrifugation and stored at −20 °C.
Depending on the experiment, samples were either labeled with TMT-11plex (decryptM), TMT-10plex (non-decryptM, quadruplicates), or TMTpro reagent (time-series; all Thermo Scientific). Therefore, dried peptides were reconstituted in 15 µl 100 mM EPPS, pH 8.5 and each treatment condition was labeled with one channel of the respective TMT reagent (5 µl of 25 µg/µl reagent, Appendix Tables S4–S6). The reaction was incubated for 1 h at 23 °C and subsequently quenched with 0.4% hydroxylamine. Then, samples were pooled, acidified with 1% formic acid, and freeze-dried by vacuum-centrifugation. Labeled peptide pools were desalted on C18 Sep-Pak cartridges (37–55 µm particle size, 50 mg capacity, Waters), using 0.1% formic acid as equilibration solvent, and 0.1% formic acid in 60% acetonitrile was used as elution solvent. Eluted peptides were freeze-dried and stored at −20 °C until further use.
Basic reversed-phase (bRP) fractionation of peptides was performed on a Vanquish HPLC (Thermo Scientific). In short, dried peptides were reconstituted in 200 µl 25 mM ammonium bicarbonate, pH 8.0 and directly injected onto a Waters BEH130 XBridge C18 column (3.5 µm, 4.6 × 250 mm). […] Using an automated fraction collector, 96 fractions were collected between min 7 and 55 after injection. Fractions were acidified with 1% formic acid and pooled to 48 fractions, before they were freeze-dried and stored at −20 °C.
Immobilized metal ion affinity chromatography (IMAC) enrichment of phosphorylated peptides was performed on the Bravo automated liquid handling platform using AssayMAP Fe(III)-NTA cartridges (Agilent). In brief, the 48 dried peptide fractions were reconstituted in 0.1% TFA in 80% acetonitrile and further pooled to 12 fractions (200 µl final volume per well). The phosphopeptide enrichment protocol embedded in the Agilent AssayMAP Bravo Protein Sample Prep Workbench v2.0 software was run. Thereby, the cartridges were first primed with 150 μl 0.1% TFA in acetonitrile at 300 μl/min, and equilibrated with 150 μl 0.1% TFA in 80% acetonitrile at 10 μl/min. Then, pooled fractions were loaded at 5 µl/min and further washed three times with 150 μl 0.1% TFA in 80% acetonitrile at 50 μl/min. Enriched peptides were eluted with 60 μl 1% ammonium hydroxide at 5 μl/min.

EC50 (Colo-357): 160 nM | EC50 (PANC-1): 5540 nM
Structure (SMILES): CCN1CCN(Cc2ccc(Nc3ncc(F)c(-c4cc(F)c5nc(C)n(C(C)C)c5c4)n3)nc2)CC1 [Abemaciclib]
EC50 (Capan-1): 245 nM | EC50 (HPDE): > 10000 nM | EC50 (HuP-T4): 7.93 nM | EC50 (PSN-1): 151 nM

Structure (SMILES): COc1cc(N2CCC(N3CCN(C)CC3)CC2)ccc1Nc1ncc(Cl)c(Nc2ccccc2P(C)(C)=O)n1 [Brigatinib]
EC50 (PRKAG2): 510 nM | pKDapp (PRKAG2): 6.48 | Kd (PRKAG2; read-out: KDapp): 329 nM

Structure (SMILES): Nc1ccn([C@@H]2O[C@H](CO)[C@@H](O)C2(F)F)c(=O)n1 [GEM, Gemcitabine]
increase of CHEK1-pS468 phosphorylation upon GEM (p-sites in AsPC-1 cells; 1 µM GEM vs. vehicle): > 18 fold and 18 fold | increase of LRRC42-pS385 upon GEM (p-sites in AsPC-1 cells; 1 µM GEM vs. vehicle): 4.8 fold and ~ 5 fold | increase of NSUN5-pS432 upon GEM (p-sites in AsPC-1 cells; 1 µM GEM vs. vehicle): 7 fold | increase of PNISR-pS706 upon GEM (p-sites in AsPC-1 cells; 1 µM GEM vs. vehicle): 4.6 fold | induction of HMGA1 pS9 by GEM (p-sites in AsPC-1 cells; 1 µM GEM vs. vehicle): > 4 fold | induction of HMGA1 pS44 by GEM (p-sites in AsPC-1 cells; 1 µM GEM vs. vehicle): > 4 fold | induction of PPM1G pS201 by GEM (p-sites in AsPC-1 cells; 1 µM GEM vs. vehicle): > 4 fold | induction of TSEN34 pS136 by GEM (p-sites in AsPC-1 cells; 1 µM GEM vs. vehicle): > 4 fold | GEM Regulation, PPM1G S201 (p-sites in AsPC-1 cells; 1,000 nM GEM vs. vehicle, n=4): up | GEM Regulation, RALY S176 (p-sites in AsPC-1 cells; 1,000 nM GEM vs. vehicle, n=4): up | GEM_log2FC, PPM1G S201 (p-sites in AsPC-1 cells; 1,000 nM GEM vs. vehicle, n=4): 2.66 log2 | GEM_log2FC, RALY S176 (p-sites in AsPC-1 cells; 1,000 nM GEM vs. vehicle, n=4): 3.08 log2
